Like-named read-outs stand apart in the source and are kept apart here.
What was measured:
mouse sEH = target: T1, mouse sEH (Mus musculus, UniProt P34914); assay: sEH inhibition assay; assay type: biochemical
T1 sequence (P34914 1-554): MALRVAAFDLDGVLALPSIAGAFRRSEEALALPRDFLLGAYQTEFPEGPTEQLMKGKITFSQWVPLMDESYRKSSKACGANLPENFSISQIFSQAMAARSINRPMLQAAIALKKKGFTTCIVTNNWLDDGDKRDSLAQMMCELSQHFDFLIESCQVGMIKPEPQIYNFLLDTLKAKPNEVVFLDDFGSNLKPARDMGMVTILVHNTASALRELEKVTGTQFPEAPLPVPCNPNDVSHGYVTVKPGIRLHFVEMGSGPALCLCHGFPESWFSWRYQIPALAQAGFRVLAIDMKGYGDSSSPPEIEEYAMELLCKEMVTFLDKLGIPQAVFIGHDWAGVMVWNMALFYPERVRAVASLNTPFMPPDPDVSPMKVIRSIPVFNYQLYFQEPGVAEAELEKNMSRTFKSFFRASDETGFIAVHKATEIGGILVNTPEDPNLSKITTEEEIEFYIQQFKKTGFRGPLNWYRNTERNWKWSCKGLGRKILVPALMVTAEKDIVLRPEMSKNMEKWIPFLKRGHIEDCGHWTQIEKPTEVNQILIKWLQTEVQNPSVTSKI

rat sEH = target: T2, rat sEH (Rattus norvegicus, UniProt P80299); assay: sEH inhibition assay; assay type: biochemical
T2 sequence (P80299 1-554): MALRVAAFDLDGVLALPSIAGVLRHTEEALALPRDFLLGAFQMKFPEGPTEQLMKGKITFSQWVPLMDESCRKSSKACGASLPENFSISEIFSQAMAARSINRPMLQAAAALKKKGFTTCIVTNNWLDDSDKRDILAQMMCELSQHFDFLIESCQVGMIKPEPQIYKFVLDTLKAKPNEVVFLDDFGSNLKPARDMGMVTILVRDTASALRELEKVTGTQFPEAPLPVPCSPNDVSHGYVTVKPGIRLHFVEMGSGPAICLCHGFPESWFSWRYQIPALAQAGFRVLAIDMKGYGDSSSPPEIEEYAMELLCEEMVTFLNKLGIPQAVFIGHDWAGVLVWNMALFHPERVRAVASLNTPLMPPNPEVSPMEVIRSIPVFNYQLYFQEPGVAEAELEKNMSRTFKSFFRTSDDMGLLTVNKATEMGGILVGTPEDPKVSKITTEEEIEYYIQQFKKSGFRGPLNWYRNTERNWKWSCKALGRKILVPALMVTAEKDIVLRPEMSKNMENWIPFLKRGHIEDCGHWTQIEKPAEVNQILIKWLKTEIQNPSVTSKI

human FAAH = target: T3, human FAAH (Homo sapiens, UniProt O00519); assay: FAAH inhibition assay; assay type: biochemical; settings: OMP 50 μM, pH 8, 37 °C
T3 sequence (O00519 1-579): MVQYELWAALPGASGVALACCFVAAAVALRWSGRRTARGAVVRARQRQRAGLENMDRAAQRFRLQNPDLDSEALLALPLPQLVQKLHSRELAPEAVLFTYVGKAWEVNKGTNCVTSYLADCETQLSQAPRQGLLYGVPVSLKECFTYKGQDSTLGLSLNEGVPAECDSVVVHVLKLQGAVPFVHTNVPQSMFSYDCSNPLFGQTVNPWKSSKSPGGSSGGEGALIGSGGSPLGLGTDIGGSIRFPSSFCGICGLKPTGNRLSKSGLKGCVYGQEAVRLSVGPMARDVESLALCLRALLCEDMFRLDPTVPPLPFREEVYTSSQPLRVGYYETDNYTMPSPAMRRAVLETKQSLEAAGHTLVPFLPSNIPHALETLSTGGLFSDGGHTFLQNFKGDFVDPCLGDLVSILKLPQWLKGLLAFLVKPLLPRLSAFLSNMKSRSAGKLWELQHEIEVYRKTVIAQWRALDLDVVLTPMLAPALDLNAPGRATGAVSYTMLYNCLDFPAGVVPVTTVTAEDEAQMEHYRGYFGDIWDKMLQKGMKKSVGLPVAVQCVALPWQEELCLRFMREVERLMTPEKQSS

human sEH = target: T4, human sEH (Homo sapiens, UniProt P34913); assay: sEH inhibition assay; assay type: biochemical; settings: CMNPC 5 μM, pH 7.4, 30 °C
T4 sequence (P34913 1-555): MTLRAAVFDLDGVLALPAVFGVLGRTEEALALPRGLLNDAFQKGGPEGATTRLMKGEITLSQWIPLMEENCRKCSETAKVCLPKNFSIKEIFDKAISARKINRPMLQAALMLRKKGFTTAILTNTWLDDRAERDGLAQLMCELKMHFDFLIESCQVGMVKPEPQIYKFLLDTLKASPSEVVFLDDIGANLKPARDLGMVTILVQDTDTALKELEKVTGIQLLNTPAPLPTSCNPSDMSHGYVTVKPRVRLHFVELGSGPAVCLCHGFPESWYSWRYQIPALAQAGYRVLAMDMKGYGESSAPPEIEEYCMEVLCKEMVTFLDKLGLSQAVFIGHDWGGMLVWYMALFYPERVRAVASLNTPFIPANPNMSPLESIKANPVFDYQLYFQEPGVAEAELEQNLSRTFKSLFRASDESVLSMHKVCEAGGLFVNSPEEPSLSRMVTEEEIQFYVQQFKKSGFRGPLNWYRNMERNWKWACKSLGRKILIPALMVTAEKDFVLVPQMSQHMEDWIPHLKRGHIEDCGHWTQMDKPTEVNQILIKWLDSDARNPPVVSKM

[1] = Microsomal liver stability assay, human; assay type: in vitro ADME; settings: pH 7.4
[2] = Microsomal liver stability assay, mouse; assay type: in vitro ADME; settings: pH 7.4
[3] = Microsomal liver stability assay, rat; assay type: in vitro ADME; settings: both, pH 7.4
[4] = read-out: Rat sEH IC50, rat sEH, CMNPC 5 μM, pH 7.4, 30 °C
[5] = Human FAAH IC50, human recombinant FAAH
[6] = Human sEH IC50, human recombinant sEH

Compound | IC50 (mouse sEH) | IC50 (rat sEH) | IC50 (human FAAH; [5]) | IC50 (human sEH; [6]) | further results
O=C(Nc1ccc(-c2nc3ccccc3s2)cc1)C1CCN(S(=O)(=O)c2ccc([N+](=O)[O-])cc2)CC1 [Compound 7e, N-(4-(benzo[d]thiazol-2-yl)phenyl)-1-((4-nitrophenyl)sulfonyl)piperidine-4-carboxamide] | > 10000 nM | 4480 nM | – | – | –
O=C(Nc1ccc(OC(F)(F)F)cc1)NC1CCC(Oc2ccc(C(=O)O)cc2)CC1 (stereo not shown) [t-TUCB, reference compound] | – | – | – | – | IC50 (rat sEH; [4]): 9.3 nM
N#Cc1ccccc1S(=O)(=O)N1CCC(C(=O)Nc2ccc(-c3nc4ccccc4s3)cc2)CC1 [Compound 7b, N-(4-(benzo[d]thiazol-2-yl)phenyl)-1-((2-cyanophenyl)sulfonyl)piperidine-4-carboxamide] | 578 nM | 185 nM | 0.287 µM | 19.5 nM | –
C[C@]12CC[C@H]3[C@@H](CCC4=CC(=O)CC[C@@]43C)[C@@H]1CC[C@@H]2O [Testosterone (control), testosterone, reference compound] | – | – | – | – | microsomal CLint at 1 μM ([1]; microsomes): 61 µL/min/mg; microsomal CLint at 1 μM ([2]; microsomes): 280 µL/min/mg; half-life at 1 μM ([3]; microsomes): 1.1 min; microsomal CLint at 1 μM ([3]; microsomes): 1250 µL/min/mg
O=C(Nc1ccc(-c2nc3ccccc3s2)cc1)C1CCN(S(=O)(=O)c2c(Cl)cc(Br)cc2Cl)CC1 [Compound 7k, N-(4-(benzo[d]thiazol-2-yl)phenyl)-1-((4-bromo-2,6-dichlorophenyl)sulfonyl)piperidine-4-carboxamide] | 1790 nM | 42.5 nM | 0.0897 µM | 41 nM | –
O=C(Nc1ccc(-c2nc3ccccc3s2)cc1)C1CCN(S(=O)(=O)c2cc(C(F)(F)F)cc(C(F)(F)F)c2)CC1 [Compound 7j, N-(4-(benzo[d]thiazol-2-yl)phenyl)-1-((3,5-bis(trifluoromethyl)phenyl)sulfonyl)piperidine-4-carboxamide] | > 10000 nM | 2910 nM | 0.0419 µM | 4840 nM | –
O=C(Nc1ccc(-c2nc3ccccc3s2)cc1)C1CCN(S(=O)(=O)c2ccc(F)cc2Cl)CC1 [Compound 7f, N-(4-(benzo[d]thiazol-2-yl)phenyl)-1-((2-chloro-4-fluorophenyl)sulfonyl)piperidine-4-carboxamide] | 267 nM | 116 nM | 0.0191 µM | 16.9 nM | –
O=C(Nc1ccc(-c2nc3ccccc3s2)cc1)C1CCN(S(=O)(=O)c2ccc(F)cc2Br)CC1 [Compound 7h, N-(4-(benzo[d]thiazol-2-yl)phenyl)-1-((2-bromo-4-fluorophenyl)sulfonyl)piperidine-4-carboxamide] | 402 nM | 11.8 nM | 0.0289 µM | 8.2 nM | –
O=C(Nc1ccc(-c2nc3ccccc3s2)cc1)C1CCN(S(=O)(=O)c2ccc(C(F)(F)F)cc2)CC1 [Compound 7d, N-(4-(benzo[d]thiazol-2-yl)phenyl)-1-((4-(trifluoromethyl)phenyl)sulfonyl)piperidine-4-carboxamide] | 9180 nM | 28.9 nM | 0.0481 µM | 51.5 nM | –
O=C(Nc1ccc(-c2nc3ccccc3s2)cc1)C1CCN(S(=O)(=O)c2ccccc2C(F)(F)F)CC1 [Compound 7a, N-(4-(benzo[d]thiazol-2-yl)phenyl)-1-((2-(trifluoromethyl)phenyl)sulfonyl)piperidine-4-carboxamide] | 7210 nM | 5.7 nM | 0.0097 µM | 3.1 nM | half-life at 1 μM ([1]; human liver microsomes): 24 min; microsomal CLint at 1 μM ([1]; human liver microsomes): 57 µL/min/mg; half-life at 1 μM ([2]; mouse liver microsomes): 15.8 min; microsomal CLint at 1 μM ([2]; mouse liver microsomes): 87 µL/min/mg; half-life at 1 μM ([3]; rat liver microsomes): 14.7 min; microsomal CLint at 1 μM ([3]; rat liver microsomes): 94 µL/min/mg
O=C(Nc1ccc(-c2nc3ccccc3s2)cc1)C1CCN(S(=O)(=O)c2ccc(C(F)(F)F)cc2Cl)CC1 [Compound 7g, N-(4-(benzo[d]thiazol-2-yl)phenyl)-1-((2-chloro-4-(trifluoromethyl)phenyl)sulfonyl) piperidine-4-carboxamide] | – | – | – | – | IC50 (human FAAH; read-out: Human FAAH IC50, human recombinant FAAH): 0.0266 µM; IC50 (human sEH; read-out: Human sEH IC50, human recombinant sEH): 432 nM; IC50 (mouse sEH; read-out: Mouse sEH IC50, mouse sEH, CMNPC 5 μM, pH 7.4, 30 °C): 9060 nM; IC50 (rat sEH; [4]): 859 nM
O=C(Nc1ccc(-c2nc3ccccc3s2)cc1)C1CCN(S(=O)(=O)c2cccc(C(F)(F)F)c2)CC1 [Compound 7c, N-(4-(benzo[d]thiazol-2-yl)phenyl)-1-((3-(trifluoromethyl)phenyl)sulfonyl)piperidine-4-carboxamide] | 4310 nM | 124 nM | 0.0223 µM | 89.3 nM | –

Reference: article PMC9879382 (Prostaglandins & other lipid mediators, 2022)
